Measurements taken from patent US7405228B2, “Antibacterial cyano-(substituted)-methylenepiperidinophenyl oxazolidinones targeting multiple ribonucleoprotein sites” (Wockhardt Limited, priority 2002, dated 2008).

SMILES | melting point
N#CC(CO)C1CCN(c2ccc(N3C[C@H](COc4ccon4)OC3=O)cc2F)CC1 (stereo partly drawn) [Example 153, (R)-3-{3-[4-(4-(1-cyano-2-hydroxy)-ethylpiperidin-1-yl)-3-fluorophenyl]-2-oxo-oxazolidin-5-ylmethyloxy}-iso-oxazole] | 146 to 148 °C
CCOC(=O)c1cn(CC2CN(c3ccc(N4CCC(=CC#N)CC4)c(F)c3)C(=O)O2)nn1 (stereo in doubt) [Example 26, (S)-1-{3-[4-(4-cyanomethylidene-piperidin-1-yl)-3-fluorophenyl]-2-oxo-oxazolidin-5-ylmethyl}-4-carboethoxy-1,2,3-triazole] | 164 to 166 °C
N#CC=C1CCN(c2ccc(N3C[C@H](CNC(=O)C4COC(=O)N4)OC3=O)cc2F)CC1 (stereo in doubt) [Example 24, (S)-N-{3-[4-(4-cyanomethylidene-piperidin-1-yl)-3-fluorophenyl]-2-oxo-oxazolidin-5-ylmethyl}-2-oxo-oxazolidin-4-yl-carboxamide] | 145 °C
CC(C)COC(=O)NC[C@H]1CN(c2ccc(N3CC=C(CC#N)C(F)C3)c(F)c2)C(=O)O1 (stereo partly drawn) [Example 163, (S)-N-{3-[4-(4-cyanomethyl-3-fluoro-4,5-dehydropiperidin-1-yl)-3-fluorophenyl]-2-oxo-oxazolidin-5-ylmethyl}-isobutylcarbamate] | 146 to 148 °C
C=CCN(C#N)C[C@H]1CN(c2ccc(N3CCC(=CC#N)CC3)c(F)c2)C(=O)O1 [Example 22, (S)-{N-{3-[4-(4-cyanomethylidene-piperidin-1-yl)-3-fluorophenyl]-2-oxo-oxazolidin-5-ylmethylamino}N-cyano}-prop-2-ene] | 111 to 113 °C
CC1CN(c2ccc(N3C[C@H](CNC=O)OC3=O)cc2F)CC/C1=C\C#N (stereo partly drawn) [Example 62, (S)-N-{3-[4-(4-cyanomethylidene-3-methylpiperidin-1-yl)-3-fluorophenyl]-2-oxo-oxazolidin-5-ylmethyl}-formamide] | 98 to 100 °C
CC1CN(c2ccc(N3C[C@H](CNC(=O)CC#N)OC3=O)cc2F)CC/C1=C\C#N (stereo partly drawn) [Example 65, (S)-N-{3-[4-(4-cyanomethylidene-3-methylpiperidin-1-yl)-3-fluorophenyl]-2-oxo-oxazolidin-5-ylmethyl}-2-cyanoacetamide] | 102 to 104 °C
CC(=O)NC[C@H]1CN(c2ccc(N3CCC(=C(C#N)n4ccnc4C)CC3)c(F)c2)C(=O)O1 [Example 103, (S)-N-{3-[4-(4-(1-cyano-1-(2-methyl-imidazol-1-yl)-methylidene)-piperidin-1-yl)-3-fluorophenyl]-2-oxo-oxazolidin-5-ylmethyl}-acetamide] | 204 to 206 °C
CS(=O)(=O)OC[C@H]1CN(c2ccc(N3CCC(C(C#N)c4nccs4)CC3)c(F)c2)C(=O)O1 (stereo partly drawn) [Example 157, (R)-{3-[4-(4-(1-cyano-1-(1,3-thiazol-2-yl))-methylpiperidin-1-yl)-3-fluorophenyl]-2-oxo-oxazolidin-5-ylmethyl}-methanesulphonate] | 64 to 66 °C
CS(=O)(=O)OC[C@H]1CN(c2ccc(N3CCC(C(C#N)C(=O)O)CC3)c(F)c2)C(=O)O1 (stereo partly drawn) [Example 155, (R)-{3-[4-(4-(1-Cyano-1-hydroxycarbonyl)-methylpiperidin-1-yl)-3-fluorophenyl]-2-oxo-oxazolidin-5-ylmethyl}-methanesulphonate] | 108 to 110 °C
CC(C)COC(=O)NC[C@H]1CN(c2ccc(N3CC/C(=C\C#N)C(F)C3)c(F)c2)C(=O)O1 (stereo partly drawn) [Example 58, (S)-N-{3-[4-(4-cyanomethylidene-3-fluoropiperidin-1-yl)-3-fluorophenyl]-2-oxo-oxazolidin-5-ylmethyl}-isobutylcarbamate] | 162 to 164 °C
N#CCC1CCN(c2ccc(N3C[C@H](CO)OC3=O)cc2)CC1 [Example 124, (R)-{3-[4-(4-cyanomethyl-piperidin-1-yl)-phenyl]-2-oxo-oxazolidin-5-ylmethyl}-alcohol] | 110 to 112 °C
N#CC=C1CCN(c2ccc(N3C[C@H](CNC(=S)CN)OC3=O)cc2F)CC1 [Example 49, (S)-N-{3-[4-(4-cyanomethylidene-piperidin-1-yl)-3-fluorophenyl]-2-oxo-oxazolidin-5-ylmethylamino}-thiocarbonylmethylamine] | 157 to 158 °C
N#CCC1CCN(c2ccc(N3CC(CN=[N+]=[N-])OC3=O)cc2)CC1 (stereo in doubt) [Example 122, (S)-{3-[4-(4-cyanomethyl-piperidin-1-yl)-phenyl]-2-oxo-oxazolidin-5-ylmethyl}-azide] | 85 to 86 °C
N#CC=C1CCN(c2ccc(N3CC(Cn4cc(C#N)nn4)OC3=O)cc2F)CC1 (stereo in doubt) [Example 28, (S)-1-{3-[4-(4-cyanomethylidene-piperidin-1-yl)-3-fluorophenyl]-2-oxo-oxazolidin-5-ylmethyl}-4-cyano-1,2,3-triazole] | 78 to 80 °C
CS(=O)(=O)OC[C@H]1CN(c2ccc(N3CCC(=CC#N)CC3)cc2)C(=O)O1 [Example 6, (R)-{3-[4-(4-cyanomethylidene-piperidin-1-yl)-phenyl]-2-oxo-oxazolidin-5-ylmethyl}-methanesulphonate] | 120 to 122 °C

SMILES | melting point
CC(C)(C)CC(=O)NC[C@H]1CN(c2ccc(N3CCC(=CC#N)CC3)c(F)c2)C(=O)O1 [Example 12, (S)-N-{3-[4-(4-cyanomethylidene-piperidin-1-yl)-3-fluorophenyl]-2-oxo-oxazolidin-5-ylmethyl}-3,3-dimethylbutanamide] | 210 to 212 °C
N#CC=C1CCN(c2ccc(N3C[C@H](CNC(=O)C(Cl)(Cl)Cl)OC3=O)cc2F)CC1 [Example 33, (S)-N-{3-[4-(4-cyanomethylidene-piperidin-1-yl)-3-fluorophenyl]-2-oxo-oxazolidin-5-ylmethyl}-trichloroacetamide] | 142 to 144 °C
CC(=O)NC[C@H]1CN(c2ccc(N3CC/C(=C(\C)C#N)C(F)C3)c(F)c2)C(=O)O1 (stereo partly drawn) [Example 87, Z-(S)-N-{3-[4-(4-(1-cyanoethylidene)-3-fluoropiperidin-1-yl)-3-fluorophenyl]-2-oxo-oxazolidin-5-ylmethyl}-acetamide] | 148 to 150 °C
N#CC=C1CCN(c2ccc(N3C[C@H](CNC(=S)NCCO)OC3=O)cc2F)CC1 [Example 48, (S)-N-{3-[4-(4-cyanomethylidene-piperidin-1-yl)-3-fluorophenyl]-2-oxo-oxazolidin-5-ylmethyl}-2-hydroxyethylthiocarbamide] | 168 to 170 °C
CC(C)(C)C(=O)OCC(=O)NC[C@H]1CN(c2ccc(N3CCC(=CC#N)CC3)c(F)c2)C(=O)O1 [Example 14, (S)-N-{3-[4-(4-cyanomethylidene-piperidin-1-yl)-3-fluorophenyl]-2-oxo-oxazolidin-5-ylmethyl}-2-pivolyloxyacetamide] | 91 to 93 °C
CS(=O)(=O)OC[C@H]1CN(c2ccc(N3CC/C(=C\C#N)C(F)C3)c(F)c2)C(=O)O1 (stereo partly drawn) [Example 59, (R)-{3-[4-(4-cyanomethylidene-3-fluoropiperidin-1-yl)-3-fluorophenyl]-2-oxo-oxazolidin-5-ylmethyl}-methanesulphonate] | 116 to 118 °C
N#CC=C1CCN(c2ccc(N3CC(CN=[N+]=[N-])OC3=O)cc2F)CC1 (stereo in doubt) [Example 16, (S)-{3-[4-(4-cyanomethylidene-piperidin-1-yl)-3-fluorophenyl]-2-oxo-oxazolidin-5-ylmethyl}-azide] | 112 to 114 °C
CC(C#N)=C1CCN(c2ccc(N3C[C@H](CNC(=O)OCC(C)C)OC3=O)cc2F)CC1 [Example 81, (S)-N-{3-[4-(4-(1-cyanoethylidene)-piperidin-1-yl)-3-fluorophenyl]-2-oxo-oxazolidin-5-ylmethyl}-isobutylcarbamate] | 158 to 160 °C
N#CC=C1CCN(c2ccc(N3C[C@H](CNC(=O)CO)OC3=O)cc2F)CC1 [Example 13, (S)-N-{3-[4-(4-cyanomethylidene-piperidin-1-yl)-3-fluorophenyl]-2-oxo-oxazolidin-5-ylmethyl}-2-hydroxyacetamide] | 68 to 70 °C
COC(=O)c1cn(C[C@H]2CN(c3ccc(N4CCC(C(C#N)CO)CC4)c(F)c3)C(=O)O2)nn1 (stereo partly drawn) [Example 150, (S)-1-{3-[4-(4-(1-cyano-2-hydroxy)-ethylpiperidin-1-yl)-3-fluorophenyl]-2-oxo-oxazolidin-5-ylmethyl}-4-methoxycarbonyl-1,2,3-triazole] | 204 to 206 °C
CC(C#N)=C1CCN(c2ccc(N3C[C@H](CNC(=O)CN)OC3=O)cc2F)CC1 [Example 76, (S)-N-{3-[4-(4-(1-cyanoethylidene)-piperidin-1-yl)-3-fluorophenyl]-2-oxo-oxazolidin-5-ylmethylamino}-carboxymethylamine] | 141 to 142 °C
N#CCC1CCN(c2ccc(N3CC(Cn4cc(C#N)nn4)OC3=O)cc2F)CC1 (stereo in doubt) [Example 128, (S)-1-{3-[4-(4-cyanomethyl-piperidin-1-yl)-3-fluorophenyl]-2-oxo-oxazolidin-5-ylmethyl}-4-cyano-1,2,3-triazole] | 200 to 202 °C
CC(C#N)=C1CCN(c2ccc(N3C[C@H](CNC=O)OC3=O)cc2F)CC1 [Example 73, (S)-N-{3-[4-(4-(1-cyanoethylidene)-piperidin-1-yl)-3-fluorophenyl]-2-oxo-oxazolidin-5-ylmethyl}-formamide] | 188 to 190 °C
N#CC=C1CCN(c2ccc(N3CC(Cn4cc(C#N)nn4)OC3=O)cc2)CC1 (stereo in doubt) [Example 5, (S)-1-{3-[4-(4-cyanomethylidene-piperidin-1-yl)-phenyl]-2-oxo-oxazolidin-5-ylmethyl}-4-cyano-1,2,3-triazole] | 186 to 188 °C
CC(C#N)=C1CCN(c2ccc(N3C[C@H](CNC(=O)CC#N)OC3=O)cc2F)CC1 [Example 75, (S)-N-{3-[4-(4-(1-cyanoethylidene)-piperidin-1-yl)-3-fluorophenyl]-2-oxo-oxazolidin-5-ylmethyl}-2-cyanoacetamide] | 194 to 196 °C
CS(=O)(=O)OC[C@H]1CN(c2ccc(N3CCC(C(C#N)CO)CC3)c(F)c2)C(=O)O1 (stereo partly drawn) [Example 154, (R)-{3-[4-(4-(1-cyano-2-hydroxy)-ethylpiperidin-1-yl)-3-fluorophenyl]-2-oxo-oxazolidin-5-ylmethyl}-methanesulphonate] | 144 to 146 °C
